PubChem BioAssay (NCI)
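Following 48 hours of exposure in 96-well plates, responses at five concentrations were used to interpolate endpoints linearly. Here, GI50 denotes the concentration required for 50% inhibition of growth. TGI: concentration producing complete growth inhibition.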

Assays:
Test in all cases: NCI-60 cell line screen, 48 h
[1] = system: 786-0 renal
[2] = system: A498 renal
[3] = system: A549 NSCLC
[4] = system: ACHN renal
[5] = system: BT-549 breast
[6] = system: CAKI-1 renal
[7] = system: CCRF-CEM leukemia
[8] = system: COLO 205 colon
[9] = system: DU-145 prostate
[10] = system: EKVX NSCLC
[11] = system: HCC-2998 colon
[12] = system: HCT-116 colon
[13] = system: HCT-15 colon
[14] = system: HOP-62 NSCLC
[15] = system: HOP-92 NSCLC
[16] = system: HS 578T breast
[17] = system: HT29 colon
[18] = system: IGROV1 ovarian
[19] = system: K-562 leukemia
[20] = system: KM12 colon
[21] = system: LOX IMVI melanoma
[22] = system: M14 melanoma
[23] = system: MCF7 breast
[24] = system: MDA-MB-231 breast
[25] = system: MDA-MB-435
[26] = system: MOLT-4 leukemia
[27] = system: NCI-H226 lung
[28] = system: NCI-H23 lung
[29] = system: NCI-H460 lung
[30] = system: NCI-H522 lung
[31] = system: NCI/ADR-RES ovarian
[32] = system: OVCAR-3 ovarian
[33] = system: OVCAR-4 ovarian
[34] = system: OVCAR-5 ovarian
[35] = system: OVCAR-8 ovarian
[36] = system: PC-3 prostate
[37] = system: RPMI-8226 leukemia
[38] = system: RXF 393 renal
[39] = system: SF-268 CNS
[40] = system: SF-295 CNS
[41] = system: SF-539 CNS
[42] = system: SK-MEL-2 melanoma
[43] = system: SK-MEL-28 melanoma
[44] = system: SK-MEL-5 melanoma
[45] = system: SK-OV-3 ovarian
[46] = system: SN12C renal
[47] = system: SNB-19 CNS
[48] = system: SR leukemia
[49] = system: SW-620 colon
[50] = system: TK-10 renal
[51] = system: U251 CNS
[52] = system: UACC-257 melanoma
[53] = system: UACC-62 melanoma
[54] = system: UO-31 renal

SMILES: CC[C@]1(O)CC2CN(CCc3c([nH]c4ccccc34)[C@@](C(=O)OC)(c3cc4c(cc3OC)N(C=O)[C@H]3[C@@](O)(C(=O)OC)[C@H](OC(C)=O)[C@]5(CC)C=CCN6CC[C@]43[C@@H]65)C2)C1 (some centres undefined)
- GI50 [1]: 14 nM
- TGI [1]: > 22500 nM
- GI50 [2]: 12.3 nM
- GI50 [3]: 17.2 nM
- TGI [3]: > 50000 nM
- GI50 [4]: 235 nM
- TGI [4]: > 50000 nM
- GI50 [5]: 6.65 nM
- TGI [5]: 149 nM
- GI50 [6]: 232 nM
- TGI [6]: > 50000 nM
- GI50 [7]: < 5 nM
- GI50 [8]: < 5 nM
- TGI [8]: < 5 nM
- GI50 [9]: < 5 nM
- GI50 [10]: > 30800 nM
- TGI [10]: > 50000 nM
- GI50 [11]: < 5 nM
- GI50 [12]: < 5 nM
- TGI [12]: > 50000 nM
- TGI [13]: > 50000 nM
- GI50 [14]: 5.4 nM
- TGI [14]: > 44200 nM
- TGI [15]: > 50000 nM
- GI50 [16]: 48.6 nM
- TGI [16]: > 46100 nM
- GI50 [17]: < 5 nM
- TGI [17]: 19.5 nM
- GI50 [18]: 33.4 nM
- TGI [18]: > 50000 nM
- GI50 [19]: < 5 nM
- TGI [19]: > 50000 nM
- GI50 [20]: < 5 nM
- TGI [20]: > 50000 nM
- GI50 [21]: 8.08 nM
- TGI [21]: > 50000 nM
- GI50 [22]: 6.32 nM
- TGI [22]: 679 nM
- GI50 [23]: < 5 nM
- TGI [23]: > 50000 nM
- GI50 [24]: < 5 nM
- TGI [24]: 2730 nM
- GI50 [25]: < 5 nM
- TGI [25]: < 5 nM
- GI50 [26]: < 5 nM
- GI50 [27]: < 5 nM
- TGI [27]: 31.9 nM
- GI50 [28]: < 5 nM
- TGI [28]: > 50000 nM
- GI50 [29]: < 5 nM
- TGI [29]: > 50000 nM
- GI50 [30]: < 5 nM
- TGI [30]: < 5 nM
- GI50 [31]: 698 nM
- TGI [31]: > 13300 nM
- GI50 [32]: < 5 nM
- GI50 [33]: 6.53 nM
- TGI [33]: > 50000 nM
- GI50 [34]: 25.3 nM
- TGI [34]: > 50000 nM
- GI50 [35]: 8.28 nM
- TGI [35]: > 50000 nM
- GI50 [36]: 5.9 nM
- TGI [36]: > 50000 nM
- GI50 [37]: < 5 nM
- TGI [37]: 17800 nM
- GI50 [38]: < 5 nM
- TGI [38]: > 50000 nM
- GI50 [39]: < 5 nM
- TGI [39]: > 50000 nM
- GI50 [40]: < 5 nM
- TGI [40]: 1350 nM
- GI50 [41]: < 5 nM
- TGI [41]: > 17900 nM
- GI50 [42]: < 5 nM
- TGI [42]: 4160 nM
- GI50 [43]: < 5 nM
- TGI [43]: > 50000 nM
- GI50 [44]: < 5 nM
- TGI [44]: 59 nM
- GI50 [45]: < 5 nM
- TGI [45]: 18.5 nM
- GI50 [46]: < 5 nM
- TGI [46]: > 50000 nM
- GI50 [47]: < 5 nM
- TGI [47]: > 50000 nM
- GI50 [48]: < 5 nM
- TGI [48]: > 50000 nM
- GI50 [49]: < 5 nM
- TGI [49]: > 50000 nM
- GI50 [50]: 19.2 nM
- TGI [50]: 9860 nM
- GI50 [51]: < 5 nM
- GI50 [52]: < 5 nM
- TGI [52]: > 38400 nM
- GI50 [53]: < 5 nM
- TGI [53]: > 50000 nM
- GI50 [54]: 519 nM
- TGI [54]: > 50000 nM
